In PMC9161616, “A first-in-human phase 1/2 study of FGF401 and combination of FGF401 with spartalizumab in patients with hepatocellular carcinoma or biomarker-selected solid tumors” (Journal of Experimental & Clinical Cancer Research : CR, 2022):
Entries after “also recorded” stand apart in the source; their conditions may differ. Read-outs that look alike come from different tables or passages of the source.

Assays:
Format in all cases: in vivo, human
FGF19-FGFR4 signaling = assay: Blood-based pharmacodynamic biomarkers (C4, total bile acids, FGF19, cholesterol)
Protocol: An immunohistochemistry (IHC) assay to detect FGF19 was used retrospectively on remnant samples and the association of FGF19 expression levels with best change in sum of diameters (SOD) for RECIST v1.1 in the single-agent was evaluated. […] FGF19 was quantified using a capture-ELISA assay from R&D System, Cat. nr. DF1900, with a LLOQ of 27.2 pg/mL and ULOQ of 1096.3 pg/mL. C4: 7α-Hydroxy-4-cholesten-3-one was determined using an LC-MS/MS method. The concentration of total bile acids were measured using the colorimetric diazyme’s enzymatic total bile acids assay.

[1] = Plasma pharmacokinetics of FGF401 (noncompartmental) and food effect
Protocol: Pharmacokinetic endpoints included plasma concentrations and PK parameters of FGF401 and spartalizumab. Pharmacokinetic parameters were determined with noncompartmental method(s) using Phoenix WinNonlin version 6.4 or above (Pharsight Corporation, Mountain View, Califormia, USA). Immunogenicity of spartalizumab was assessed through presence and/or concentration of anti-drug (spartalizumab) antibodies (ADA). Food effect on FGF401 exposure was evaluated through plasma concentration of FGF401 and relevant PK parameters when dosing under fed condition. Safety of the food effect was assessed through incidence and severity of AEs and serious AEs (SAEs), including changes in laboratory values, vital signs, and ECGs when dosing under fed condition. The PK analyses and summary statistics were based on pharmacokinetic analysis set. Individual as well as mean concentration-time profiles were constructed using concentration data for spartalizumab and FGF401. Descriptive statistics for PK parameters included mean, standard deviation, coefficient of variation (CV%) mean, geometric mean, median, minimum, and maximum, with only the latter 3 for time to reach maximum concentration (Tmax) and additional 90% CI for accumulation ratio (Racc). Zero concentrations were not included in the geometric mean calculations. Missing concentrations or PK parameter values were not imputed.

[2] = tested on: CYP7A1 and DUSP6 transcript levels in tumor biopsies; assay: Tumor biopsy RNAseq pharmacodynamics
Protocol: Additionally, exploratory biomarker endpoints to assess FGF19-FGFR4 signaling inhibition by FGF401 included temporal profiling of C4, FGF19, total bile acid and total cholesterol levels in blood, and CYP7A1 and DUSP6 transcript levels in tumor biopsies. An immunohistochemistry (IHC) assay to detect FGF19 was used retrospectively on remnant samples and the association of FGF19 expression levels with best change in sum of diameters (SOD) for RECIST v1.1 in the single-agent was evaluated.
For RNAseq based studies, extracted total RNA was depleted from ribosomal RNA using RNAseH. The rRNA-depleted sample was then prepared for sequencing using the TruSeq RNA v.2 Library Preparation kit (Illumina). After pooling the captured library using unique adapter index sequences and applying the pool to a sequencing flow cell, they were sequenced using Illumina v.4 chemistry and paired-end 100-bp reads. Sequence data were aligned to the reference human genome (build hg19) using STAR v.2.4.0e. Mapped reads were then used to quantify transcripts with HTSeq v.0.6.1p1 [28] and RefSeq GRCh38 v.82 gene annotation. Gene expression data were normalized using the trimmed mean of M-value normalization as implemented in the edgeR – Bioconductor package v.3.20.9 [29].

[3] = most patients across the FGF401 dose levels
[4] = human, plasma, oral, 80 mg, Cycle 1 day 8, 80 mg Fasted, n=6, geometric mean (CV%)
[5] = human, plasma, oral, 80 mg, Cycle 1 day 8, 80 mg Fed, n=4, geometric mean (CV%)
[6] = human, plasma, oral, 150 mg, Cycle 1 day 8, 150 mg Fasted, n=6, geometric mean (CV%)
[7] = low fat meals, 80 mg and 120 mg
[8] = most on-treatment biopsies obtained at C1D8

COCCNc1cc(NC(=O)N2CCCc3cc(CN4CCN(C)CC4=O)c(C=O)nc32)ncc1C#N [FGF401, roblitinib]
dose-response analyses with the pharmacodynamic biomarkers (FGF19-FGFR4 signaling; all doses tested): did not identify any associations; also recorded: without a clear dose response | change in C4 level (FGF19-FGFR4 signaling; [3]): Increase; also recorded: treatment-induced elevation | change in total bile acid level (FGF19-FGFR4 signaling; [3]): Increase; also recorded: treatment-induced elevation | change in circulating FGF19 (FGF19-FGFR4 signaling; single-agent arm): Increase | change in total cholesterol (FGF19-FGFR4 signaling; single-agent arm): decrease | dose proportionality of exposures (AUC and Cmax) ([1]; 50 to 150 mg, fasted and fasted-fed combined): increased slightly under dose proportion | Racc ([1]; C1D8 and C2D1 versus C1D1): around 1 | Racc ([1]; Cycle 1 day 8, 50 mg Fasted, n=6, geometric mean (CV%)): 0.929 (12.1) | Racc ([1]; Cycle 1 day 8, 80 mg Fasted, n=5, geometric mean (CV%)): 0.97 (14.3) | Racc ([1]; Cycle 1 day 8, 80 mg Fed, n=4, geometric mean (CV%)): 1.04 (18.6) | Racc ([1]; Cycle 1 day 8, 120 mg Fasted, n=24, geometric mean (CV%)): 1.03 (26.2) | Racc ([1]; Cycle 1 day 8, 120 mg Fed, n=15, geometric mean (CV%)): 0.95 (22.5) | Racc ([1]; Cycle 1 day 8, 150 mg Fasted, n=6, geometric mean (CV%)): 0.982 (33.3) | food effect ([1]; dosed with low-fat meals, 80 mg and 120 mg): no food effect | mean trough concentration at steady state (24 h post-dose) versus phospho-FGFR4 IC90 ([1]; even at 50 mg qd): approximately above this IC90 | AUC(0-inf) ([1]; human, plasma, oral, 50 mg, Cycle 1 day 8, 50 mg Fasted, n=6, geometric mean (CV%)): 3650 ng·h/mL | half-life ([1]; human, plasma, oral, 50 mg, Cycle 1 day 8, 50 mg Fasted, n=6, geometric mean (CV%), read-out: T1/2 (converted)): 6.57 h | Cmax ([1]; human, plasma, oral, 50 mg, Cycle 1 day 8, 50 mg Fasted, n=7, geometric mean (CV%)): 663 ng/mL | AUC(0-t) ([1]; human, plasma, oral, 50 mg, Cycle 1 day 8, 50 mg Fasted, n=7, geometric mean (CV%), read-out: AUC0-24h): 3650 ng·h/mL | AUC(0-t) ([1]; human, plasma, oral, 50 mg, Cycle 1 day 8, 50 mg Fasted, n=7, geometric mean (CV%), read-out: AUClast): 3460 ng·h/mL | Tmax ([1]; human, plasma, oral, 50 mg, Cycle 1 day 8, 50 mg Fasted, n=7, median [min, max], read-out: Tmax): 1 h | AUC(0-inf) [1, 4]: 5130 ng·h/mL | Cmax [1, 4]: 838 ng/mL | AUC(0-t) ([1]; human, plasma, oral, 80 mg, Cycle 1 day 8, 80 mg Fasted, n=6, geometric mean (CV%), read-out: AUC0-24h): 4850 ng·h/mL | AUC(0-t) ([1]; human, plasma, oral, 80 mg, Cycle 1 day 8, 80 mg Fasted, n=6, geometric mean (CV%), read-out: AUClast): 4840 ng·h/mL | half-life ([1]; human, plasma, oral, 80 mg, Cycle 1 day 8, 80 mg Fasted, n=6, geometric mean (CV%), read-out: T1/2 (converted)): 6.08 h | Tmax ([1]; human, plasma, oral, 80 mg, Cycle 1 day 8, 80 mg Fasted, n=6, median [min, max], read-out: Tmax): 1.01 h | AUC(0-inf) [1, 5]: 5550 ng·h/mL | Cmax [1, 5]: 704 ng/mL | AUC(0-t) ([1]; human, plasma, oral, 80 mg, Cycle 1 day 8, 80 mg Fed, n=4, geometric mean (CV%), read-out: AUC0-24h): 5290 ng·h/mL | AUC(0-t) ([1]; human, plasma, oral, 80 mg, Cycle 1 day 8, 80 mg Fed, n=4, geometric mean (CV%), read-out: AUClast): 5280 ng·h/mL | half-life ([1]; human, plasma, oral, 80 mg, Cycle 1 day 8, 80 mg Fed, n=4, geometric mean (CV%), read-out: T1/2 (converted)): 5.58 h | Tmax ([1]; human, plasma, oral, 80 mg, Cycle 1 day 8, 80 mg Fed, n=4, median [min, max], read-out: Tmax): 2.5 h | AUC(0-inf) ([1]; human, plasma, oral, 120 mg, Cycle 1 day 8, 120 mg Fasted, n=18, geometric mean (CV%)): 7590 ng·h/mL | half-life ([1]; human, plasma, oral, 120 mg, Cycle 1 day 8, 120 mg Fasted, n=18, geometric mean (CV%), read-out: T1/2 (converted)): 5.43 h | Cmax ([1]; human, plasma, oral, 120 mg, Cycle 1 day 8, 120 mg Fasted, n=24, geometric mean (CV%)): 1120 ng/mL | AUC(0-t) ([1]; human, plasma, oral, 120 mg, Cycle 1 day 8, 120 mg Fasted, n=24, geometric mean (CV%), read-out: AUC0-24h): 6970 ng·h/mL | AUC(0-t) ([1]; human, plasma, oral, 120 mg, Cycle 1 day 8, 120 mg Fasted, n=24, geometric mean (CV%), read-out: AUClast): 6480 ng·h/mL | Tmax ([1]; human, plasma, oral, 120 mg, Cycle 1 day 8, 120 mg Fasted, n=24, median [min, max], read-out: Tmax): 1.04 h | AUC(0-inf) ([1]; human, plasma, oral, 120 mg, Cycle 1 day 8, 120 mg Fed, n=15, geometric mean (CV%)): 7980 ng·h/mL | half-life ([1]; human, plasma, oral, 120 mg, Cycle 1 day 8, 120 mg Fed, n=15, geometric mean (CV%), read-out: T1/2 (converted)): 5.58 h | AUC(0-t) ([1]; human, plasma, oral, 120 mg, Cycle 1 day 8, 120 mg Fed, n=16, geometric mean (CV%), read-out: AUC0-24h): 7330 ng·h/mL | Cmax ([1]; human, plasma, oral, 120 mg, Cycle 1 day 8, 120 mg Fed, n=18, geometric mean (CV%)): 1060 ng/mL | AUC(0-t) ([1]; human, plasma, oral, 120 mg, Cycle 1 day 8, 120 mg Fed, n=18, geometric mean (CV%), read-out: AUClast): 7640 ng·h/mL | Tmax ([1]; human, plasma, oral, 120 mg, Cycle 1 day 8, 120 mg Fed, n=18, median [min, max], read-out: Tmax): 3.01 h | AUC(0-inf) [1, 6]: 7850 ng·h/mL | Cmax [1, 6]: 1070 ng/mL | AUC(0-t) ([1]; human, plasma, oral, 150 mg, Cycle 1 day 8, 150 mg Fasted, n=6, geometric mean (CV%), read-out: AUC0-24h): 7510 ng·h/mL | AUC(0-t) ([1]; human, plasma, oral, 150 mg, Cycle 1 day 8, 150 mg Fasted, n=6, geometric mean (CV%), read-out: AUClast): 7550 ng·h/mL | half-life ([1]; human, plasma, oral, 150 mg, Cycle 1 day 8, 150 mg Fasted, n=6, geometric mean (CV%), read-out: T1/2 (converted)): 5.24 h | Tmax ([1]; human, plasma, oral, 150 mg, Cycle 1 day 8, 150 mg Fasted, n=6, median [min, max], read-out: Tmax): 2.42 h | Tmax ([1]; human, plasma, oral, cycle 1 day 1, read-out: median Tmax across phase 1 treatment groups): 1 to 2.98 h | Tmax ([1]; human, plasma, oral, cycle 1 day 8, read-out: median Tmax across phase 1 treatment groups): 1 to 3.01 h | Tmax ([1]; human, plasma, oral, cycle 2 day 1, read-out: median Tmax across phase 1 treatment groups): 1.01 to 3.02 h | half-life ([1]; human, plasma, oral, over all treatments and during all periods, read-out: terminal half-life (T1/2)): 4.91 to 6.57 h | AUC ([1]; human, plasma, oral, 120 mg fasted, C1D8, geometric mean, CV 38.7%, read-out: AUCtau at steady state): 6970 ng·h/mL | overall interpatient variability of drug exposure ([1]; in vivo): moderate | food effect on Tmax [1, 7]: slightly delayed Tmax | food effect on half-life [1, 7]: no effect on half-life | drug accumulation following repeated dosing ([1]; qd dosing): no drug accumulation | CYP7A1 transcript in on-treatment versus pretreatment biopsies [2, 8]: upregulation | DUSP6 transcript in on-treatment versus pretreatment biopsies [2, 8]: downregulation | changes in immune infiltration after FGF401 treatment ([2]; signatures summarized with GSVA): did not observe significant changes
